Test system: c-Myc duplex (18 bp, d(AGGGTGGGG)2:d(CCCCACCCT)2) (DNA, duplex) AGGGTGGGGAGGGTGGGG/CCCCACCCTCCCCACCCT
Experiment: UV absorption titration, Scatchard
Conditions: 137 mM Na+ (NaCl), 5.4 mM K+ (KCl), 1.3 mM Ca2+, 1 mM Mg2+; Hanks' buffer, pH 7.2, 20 °C; single type of site; per site

- K1: 0.8 ± 0.1 × 10^6 M^-1
SMILES: O=C1NC(=O)c2c1c1c3ccccc3[nH]c1c1c2c2ccccc2n1[C@@H]1OC[C@H](O)[C@H](O)[C@H]1O
